Data as given in patent US20070098864A1, “PROCESS FOR PREPARING FORMULATIONS OF […] […] SPRAY FREEZING DRYING” (priority 2004, published 2007).

Columns and labels:
[1] = Modulated differential scanning calorimetry (glass transition temperature) of THC/inulin powders; assay type: physicochemical; conditions: MDSC
Method: Thermal behaviour of the spray freeze dried powders was determined by modulated differential scanning calorimetry (MDSC) on a differential scanning calorimeter (DSC2920, TA Instruments, Gent, Belgium). A modulation amplitude of 0.318° C., a modulation period of 60 seconds and a heating rate of 2° C./min was used. Calibration was performed with indium. Standard aluminium sample pans were used. During measurement, the sample cell was purged with nitrogen at a flow rate of 35 mL/min. Before scanning, the sample pan was heated at 2° C./min to 50° C. to remove all residual moisture. Subsequently, the sample was cooled to −20° C. and then scanned up to 180° C. The glass transition temperature (Tg) was defined as the inflection point of the change in specific heat in the reversing signal.

[2] = Stability study of THC (HPLC) in climate chambers
Method: To investigate the degradation of pure THC, 20 mL glass vials were charged with 70 μL of a solution of THC in methanol containing 2.52 mg THC. They were left overnight under a flow of dry nitrogen to allow for methanol evaporation. The resulting thin layers of THC spread over the bottom of the vials (4.5 cm^2). Spray freeze dried and freeze dried material containing THC were weighed in vials. All samples were stored in climate chambers of 20° C./45% RH and 60° C./8% RH. Samples (n=3) were taken at different time intervals and analysed by means of HPLC using the method described by van Drooge et al. (Eur. J. Pharm. Sci. 2004, 21, 511-518). Briefly, samples were extracted with methanol. A Waters 717+ autosampler was used to inject 50 μL of supernatant on a precolumn (HPLC precolum inserts, μBondapak C18 Guardpak) followed by a Chrompack Nucleosil 100 C18 column (4.6×250 mm). Absorbance at 214 nm was measured with a UV detector (Shimadzu SPD-M6A). Chromatograms and peak areas were analysed with an integrator (waters 741 Data Module) and Kromasystem 2000 software. The flow rate of the eluens (methanol/water 92/8 (v/v) plus 5 drops concentrated sulphuric acid per litre eluens) was set at 1.0 mL/min. […] In every series of HPLC-runs some calibration samples were included.

For `CCCCCc1cc(O)c2c(c1)OC(C)(C)[C@@H]1CCC(C)=C[C@@H]21` [pure THC, Δ^9-tetrahydrocannabinol], the Tg ([1]; pure substance) was 9.3 °C, the “1st Tg (° C.)” value ([1]; spray freeze dried, Tg of THC) was 9.3 ± 1.0 °C and the “time to complete degradation” value ([2]; exposed to air of 20° C./45% RH) was at most 50 days. For the same compound, the “time to complete degradation” value ([2]; storage at 60° C./8% RH) was at most 15 days.
